“And” between values parts separate entries of the source, which are not always exact repeats. Equal values may be shown once.
Assays:
(CAP-His6)-DNA^F complex [1] = biological target: T1, (CAP-His6)-DNA^F complex (Escherichia coli, UniProt P0ACJ8); conditions: for donor-acceptor distance, R: fluorescein on DNA^F to probe on His6 of CAP-His6
[2] = Spectroscopic properties of the fluorochromes; assay type: physicochemical
CAP-His6 = CAP-His6 (Escherichia coli, UniProt P0ACJ8); conditions: control titration with CAP (no His6 tag)
Procedure: Formation of a complex of the probe with a His6-tagged protein was detected as an increase in fluorescence anisotropy, A, arising from the increase in molecular size and corresponding decrease in rotational dynamics.
Reaction mixtures were titrated with 0-3 μM CAP-His6 (or CAP) by successive addition of 0.5-4 μl aliquots of 2-4 μM CAP-His6 (or CAP) in the same buffer. Fluorescence anisotropy was determined at the start of the titration and 5 min after each successive addition in the titration. All solutions were maintained at 25° C.
Fluorescence measurements were performed using a commercial steady-state fluorescence instrument (QM-1, PTI) equipped with T-format Glan-Thompson polarizers (PTI). […] Slit widths were 10 nm. Fluorescence emission intensities were corrected for background by subtraction of fluorescence emissions intensities for control reactions containing identical concentrations of CAP-His6 or CAP but not containing probe.
Fluorescence anisotropy, A, was calculated using: A=(IVV−GIVH)/(IVV+2GVH) where IVV and IVH are the fluorescent intensities with the excitation polarizer at a vertical position and the emission polarizers at vertical and horizontal positions, respectively, and G is the grating correction factor. […] Equilibrium dissociation constants were calculated using linear regression.

(CAP-His6)-DNA^F complex [3] = biological target: T1, (CAP-His6)-DNA^F complex; conditions: control titration with the CAP-DNA^F complex
Procedure: FRET assays using the probes according to the invention then were performed to verify interactions, to detect a target material, and to measure an intermolecular distance.
Reaction mixtures (200 μl, in 50 μl quartz micro-cuvettes (Starna)) contained 5 nM DNA^F and 50 nM CAP-His6 (or CAP) in buffer C. […] Fluorescence emission was determined at the start of the titration and 5 min after each successive addition in the titration. All solutions were maintained at 25° C.
Fluorescence emission intensities, F, were measured using a commercial steady-state fluorescence instrument (QM-1, PTI) equipped with T-format Glan-Thompson polarizers (PTI) set at 54.7° (“magic angle”).
Data were plotted as E vs. titrant concentration, and binding curves and equilibrium dissociation constants were calculated using non-linear regression (as described in Gunasekera, A. et al., J. Biol. Chem., 267:14,713-14,720 (1992)).

T1 sequence (P0ACJ8 2-210, added parts left off, one chain of several): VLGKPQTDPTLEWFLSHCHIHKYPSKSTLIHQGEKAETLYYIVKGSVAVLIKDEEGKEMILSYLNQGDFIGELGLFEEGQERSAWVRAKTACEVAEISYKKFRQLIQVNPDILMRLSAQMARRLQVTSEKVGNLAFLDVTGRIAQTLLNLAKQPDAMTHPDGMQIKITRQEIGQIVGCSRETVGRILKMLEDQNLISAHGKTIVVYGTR
CAP-His6, sequence (P0ACJ8 2-210, added parts left off): as the sequence (P0ACJ8 2-210, added parts left off, one chain of several) above

| Substance | donor-acceptor distance, R ((CAP-His6)-DNA^F complex [1]) | quantum yield (Q) [2] | λmax, em [2] | λmax, exc [2] | specificity (CAP-His6) | specificity ((CAP-His6)-DNA^F complex [3]) | efficiency of FRET at saturation, Esat ((CAP-His6)-DNA^F complex [1]; fluorescein donor on DNA^F, probe as acceptor) |
| --- | --- | --- | --- | --- | --- | --- | --- |
| (Ni^2+-NTA)2-Cy3 | 58 Å | 0.04 | 565 nm | 552 nm | > 95% | > 95% | – |
| (Ni^2+-NTA)2-Cy5 | 53 Å | 0.05 | 668 nm | 650 nm | > 95% | > 95% | 0.45 and 0.25 |
